For assay [1], the target named is human Cathepsin S (Homo sapiens (Human), UniProt P25774). As to the kind of experiment: Cathepsin enzyme inhibition assay (fluorogenic peptide substrate), human Cat S. The format is biochemical. The settings on record: human Cat S 1 nM, substrate Z-Val-Val-Arg-AMC 20 μM, pH 6.5. As for the experimental part: (§1) Cathepsin Enzyme Inhibition Assay
(§2) Enzyme activity is measured by observing the increase in fluorescence intensity caused by cleavage of a peptide substrate containing a fluorophore whose emission is quenched in the intact peptide.
(§3) Assay buffer: 100 mM potassium phosphate pH 6.5, EDTA-Na 5 mM, Triton X-100 0.001%, DTT 5 mM.
(§4) Enzymes (all at 1 nM): human and mouse Cathepsin S, Cat K, Cat B, Cat L.
(§5) Substrate (20 μM): Z-Val-Val-Arg-AMC, except for Cat K which uses Z-Leu-Arg-AMC (both from Bachem).
(§6) AMC=7-Amino-4-Methyl-Coumarin.
(§7) Excitation 360 nm, Emission 465 nm.
(§8) Enzyme is added to the substance dilutions in 96-well microtitre plates and the reaction is started with substrate. […] IC50 are calculated by standard methods.
(§9) Inhibition of human Cat S, mouse Cat S, human Cat K, human Cat B, human Cat L and mouse Cat L have been measured separately.

Assay [2] deals with human Cat L (Homo sapiens (Human), UniProt P07711). As to the kind of experiment: Cathepsin enzyme inhibition assay (fluorogenic peptide substrate), human Cat L. The format is biochemical. The settings on record: human Cat L 1 nM, substrate Z-Val-Val-Arg-AMC 20 μM, pH 6.5. As for the experimental part: as §1, §2, §3, §4, §5, §6, §7, §8, §9

The record followed here is patent US9409882B2, “Pyridine derivatives” (Hoffmann-La Roche Inc., priority 2012, dated 2016).

Sequence of human Cat L (P07711 114-333): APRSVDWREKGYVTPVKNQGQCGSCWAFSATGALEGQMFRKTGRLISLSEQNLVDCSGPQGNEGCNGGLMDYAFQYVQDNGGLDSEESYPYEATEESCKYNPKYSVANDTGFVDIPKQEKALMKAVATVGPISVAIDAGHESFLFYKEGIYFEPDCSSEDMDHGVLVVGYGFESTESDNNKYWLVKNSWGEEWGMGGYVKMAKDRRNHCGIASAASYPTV
Sequence of human Cathepsin S (P25774 115-331): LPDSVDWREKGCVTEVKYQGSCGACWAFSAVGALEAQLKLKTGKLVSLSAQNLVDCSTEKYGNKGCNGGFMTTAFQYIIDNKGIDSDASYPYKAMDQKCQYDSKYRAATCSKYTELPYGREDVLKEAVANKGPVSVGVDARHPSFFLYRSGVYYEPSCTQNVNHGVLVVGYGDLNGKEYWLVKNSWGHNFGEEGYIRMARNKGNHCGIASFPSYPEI

For orientation: IC50 means the point on the concentration scale where inhibition reaches its midpoint. Low readings indicate inhibition by little substance, high ones a need for much substance. Take `Cc1cc(-c2ccc(S(=O)(=O)[C@@H]3C[C@@H](C(=O)NC4(C#N)CC4)N(C(=O)C4(c5ncc(Cl)cc5F)CC4)C3)c(Cl)c2)ccn1` [Example 31, (2S,4R)-1-(1-(5-chloro-3-fluoropyridin-2-yl)cyclopropanecarbonyl)-4-(2-chloro-4-(2-methylpyridin-4-yl)phenylsulfonyl)-N-(1-cyanocyclopropyl)pyrrolidine-2-carboxamide]: the figures for the IC50 in assay [1] and in assay [2] were 0.000505 µM and 0.0616 µM, respectively.
On to `N#CC1(NC(=O)[C@@H]2C[C@@H](S(=O)(=O)c3ccc(-c4ccnc(Cl)c4)cc3Cl)CN2C(=O)C2(c3ncc(Cl)cc3F)CC2)CC1` [Example 32, (2S,4R)-4-[2-Chloro-4-(2-chloro-pyridin-4-yl)-benzenesulfonyl]-1-[1-(5-chloro-3-fluoro-pyridin-2-yl)-cyclopropanecarbonyl]-pyrrolidine-2-carboxylic acid (1-cyano-cyclopropyl)-amide], for which the IC50 in assay [1] was determined as 0.000686 µM; in assay [2] it was 0.112 µM.
The matching figures for `Cn1cc(-c2ccc(S(=O)(=O)[C@@H]3C[C@@H](C(=O)NC4(C#N)CC4)N(C(=O)C4(c5ncc(Cl)cc5F)CC4)C3)c(Cl)c2)cn1` [Example 33, (2S,4R)-1-[1-(5-Chloro-3-fluoro-pyridin-2-yl)-cyclopropanecarbonyl]-4-[2-chloro-4-(1-methyl-1H-pyrazol-4-yl)-benzenesulfonyl]-pyrrolidine-2-carboxylic acid (1-cyano-cyclopropyl)-amide]: 0.000375 µM and 0.0287 µM.
As for `Cc1ncccc1-c1ccc(S(=O)(=O)[C@@H]2C[C@@H](C(=O)NC3(C#N)CC3)N(C(=O)C3(c4ncc(Cl)cc4F)CC3)C2)c(Cl)c1` [Example 34, (2S,4R)-1-[1-(5-Chloro-3-fluoro-pyridin-2-yl)-cyclopropanecarbonyl]-4-[2-chloro-4-(2-methyl-pyridin-3-yl)-benzenesulfonyl]-pyrrolidine-2-carboxylic acid (1-cyano-cyclopropyl)-amide], the IC50 in assay [1] was found to be 0.000322 µM; in assay [2], 0.0642 µM.
In the case of `Cc1ncccc1-c1ccc(S(=O)(=O)[C@@H]2C[C@@H](C(=O)NC3(C#N)CC3)N(C(=O)C3(c4ncc(C(F)(F)F)cc4F)CC3)C2)c(Cl)c1` [Example 35, (2S,4R)-4-[2-Chloro-4-(2-methyl-pyridin-3-yl)-benzenesulfonyl]-1-[1-(3-fluoro-5-trifluoromethyl-pyridin-2-yl)-cyclopropanecarbonyl]-pyrrolidine-2-carboxylic acid (1-cyano-cyclopropyl)-amide], the IC50 in assay [1] came to 0.000768 µM; in assay [2], 0.0589 µM.
On to `Cc1ncccc1-c1ccc(S(=O)(=O)[C@@H]2C[C@@H](C(=O)NC3(C#N)CC3)N(C(=O)C3(c4ncc(I)cc4F)CC3)C2)c(Cl)c1` [Example 36, (2S,4R)-4-[2-Chloro-4-(2-methyl-pyridin-3-yl)-benzenesulfonyl]-1-[1-(3-fluoro-5-iodo-pyridin-2-yl)-cyclopropanecarbonyl]-pyrrolidine-2-carboxylic acid (1-cyano-cyclopropyl)-amide], for which the IC50 in assay [1] is 0.000382 µM; in assay [2], 0.0098 µM.
In the case of `Cc1ncccc1-c1ccc(S(=O)(=O)[C@@H]2C[C@@H](C(=O)NC3(C#N)CC3)N(C(=O)C3(c4ncc(Cl)cc4Cl)CC3)C2)c(Cl)c1` [Example 37, (2S,4R)-4-[2-Chloro-4-(2-methyl-pyridin-3-yl)-benzenesulfonyl]-1-[1-(3,5-dichloro-pyridin-2-yl)-cyclopropanecarbonyl]-pyrrolidine-2-carboxylic acid (1-cyano-cyclopropyl)-amide], the figures for the IC50 in assay [1] and in assay [2] were 0.000779 µM and 0.0722 µM, respectively.
`Cn1cc(-c2ccc(S(=O)(=O)[C@@H]3C[C@@H](C(=O)NC4(C#N)CC4)N(C(=O)C4(c5ncc(I)cc5F)CC4)C3)c(Cl)c2)cn1` [Example 38, (2S,4R)-4-[2-Chloro-4-(1-methyl-1H-pyrazol-4-yl)-benzenesulfonyl]-1-[1-(3-fluoro-5-iodo-pyridin-2-yl)-cyclopropanecarbonyl]-pyrrolidine-2-carboxylic acid (1-cyano-cyclopropyl)-amide]: the values for the IC50 in assay [1] and in assay [2] were 0.000678 µM and 0.0032 µM, respectively.
On to `Cn1cc(-c2ccc(S(=O)(=O)[C@@H]3C[C@@H](C(=O)NC4(C#N)CC4)N(C(=O)C4(c5ncc(C(F)(F)F)cc5F)CC4)C3)c(Cl)c2)cn1` [Example 39, (2S,4R)-4-[2-Chloro-4-(1-methyl-1H-pyrazol-4-yl)-benzenesulfonyl]-1-[1-(3-fluoro-5-trifluoromethyl-pyridin-2-yl)-cyclopropanecarbonyl]-pyrrolidine-2-carboxylic acid (1-cyano-cyclopropyl)-amide], for which the 50% inhibitory concentration (IC50) is 0.000696 µM in assay [1] and 0.0436 µM in assay [2].
For `N#CC1(NC(=O)[C@@H]2C[C@@H](S(=O)(=O)c3ccccc3F)CN2C(=O)C2(c3ncc(I)cc3F)CC2)CC1` [Example 41, (2S,4R)-4-(2-Fluoro-benzenesulfonyl)-1-[1-(3-fluoro-5-iodo-pyridin-2-yl)-cyclopropanecarbonyl]-pyrrolidine-2-carboxylic acid (1-cyano-cyclopropyl)-amide], the IC50 in assay [1] came out at 0.0006 µM; in assay [2], 0.003 µM.
For the compound `N#CC1(NC(=O)[C@@H]2C[C@@H](S(=O)(=O)c3ccccc3F)CN2C(=O)C2(c3ncc(Cl)cc3F)CC2)CC1` [Example 42, (2S,4R)-1-[1-(5-Chloro-3-fluoro-pyridin-2-yl)-cyclopropanecarbonyl]-4-(2-fluoro-benzenesulfonyl)-pyrrolidine-2-carboxylic acid (1-cyano-cyclopropyl)-amide], the figures for the half-inhibitory concentration (IC50) in assay [1] and in assay [2] were 0.0007 µM and 0.031 µM, respectively.
For `N#CC1(NC(=O)[C@@H]2C[C@@H](S(=O)(=O)c3ccccc3-n3cccn3)CN2C(=O)C2(c3ncc(I)cc3F)CC2)CC1` [Example 43, (2S,4R)-1-[1-(3-Fluoro-5-iodo-pyridin-2-yl)-cyclopropanecarbonyl]-4-(2-pyrazol-1-yl-benzenesulfonyl)-pyrrolidine-2-carboxylic acid (1-cyano-cyclopropyl)-amide], the 50% inhibitory concentration (IC50) in assay [1] was 0.017 µM; in assay [2], 0.0906 µM.
As for `N#CC1(NC(=O)[C@@H]2C[C@@H](S(=O)(=O)c3ccccc3-n3ccnn3)CN2C(=O)C2(c3ncc(I)cc3F)CC2)CC1` [Example 44, (2S,4R)-1-[1-(3-Fluoro-5-iodo-pyridin-2-yl)-cyclopropanecarbonyl]-4-(2-[1,2,3]triazol-1-yl-benzenesulfonyl)-pyrrolidine-2-carboxylic acid (1-cyano-cyclopropyl)-amide], the IC50 in assay [1] amounted to 0.00237 µM; in assay [2], 1.56 µM.
With `N#CC1(NC(=O)[C@@H]2C[C@@H](S(=O)(=O)c3ccccc3-n3cncn3)CN2C(=O)C2(c3ncc(I)cc3F)CC2)CC1` [Example 45, (2S,4R)-1-[1-(3-Fluoro-5-iodo-pyridin-2-yl)-cyclopropanecarbonyl]-4-(2-[1,2,4]triazol-1-yl-benzenesulfonyl)-pyrrolidine-2-carboxylic acid (1-cyano-cyclopropyl)-amide], the results for the 50% inhibitory concentration (IC50) in assay [1] and in assay [2] were 0.327 µM and 28.4 µM, respectively.
The matching figures for `N#CC1(NC(=O)[C@@H]2C[C@@H](S(=O)(=O)c3ccccc3-n3cccn3)CN2C(=O)C2(c3ncc(Cl)cc3F)CC2)CC1` [Example 46]: 0.159 µM and 17.4 µM.
The corresponding values for `N#CC1(NC(=O)[C@@H]2C[C@@H](S(=O)(=O)c3ccccc3-n3ccnn3)CN2C(=O)C2(c3ncc(Cl)cc3F)CC2)CC1` [Example 47, (2S,4R)-1-[1-(5-Chloro-3-fluoro-pyridin-2-yl)-cyclopropanecarbonyl]-4-(2-[1,2,3]triazol-1-yl-benzenesulfonyl)-pyrrolidine-2-carboxylic acid (1-cyano-cyclopropyl)-amide] are 0.00427 µM and 35.2 µM.
On to `N#CC1(NC(=O)[C@@H]2C[C@@H](S(=O)(=O)c3ccccc3-n3cncn3)CN2C(=O)C2(c3ncc(Cl)cc3F)CC2)CC1` [Example 48, (2S,4R)-1-[1-(5-Chloro-3-fluoro-pyridin-2-yl)-cyclopropanecarbonyl]-4-(2-[1,2,4]triazol-1-yl-benzenesulfonyl)-pyrrolidine-2-carboxylic acid (1-cyano-cyclopropyl)-amide], for which the values for the half-maximal inhibitory concentration (IC50) in assay [1] and in assay [2] were 0.0585 µM and 21.1 µM, respectively.
